The record followed here is paper PMC3351444, “Molecular Evolution of a Peptide GPCR Ligand Driven by Artificial Neural Networks” (PLoS ONE, 2012).

pEC50: −log10 of the molar value. Read-outs that look alike come from different tables or passages of the source. Square brackets hold non-standard residues; d marks the D form. Ends that are not written are not given here. Peptide text beside a SMILES is read from it.

The target of this test is T1, human CMKLR1 (Homo sapiens, UniProt Q99788).
T1 construct: host or cells: HEK293A (Invitrogen), stably expressing human Gα15
T1 sequence (Q99788 1-373): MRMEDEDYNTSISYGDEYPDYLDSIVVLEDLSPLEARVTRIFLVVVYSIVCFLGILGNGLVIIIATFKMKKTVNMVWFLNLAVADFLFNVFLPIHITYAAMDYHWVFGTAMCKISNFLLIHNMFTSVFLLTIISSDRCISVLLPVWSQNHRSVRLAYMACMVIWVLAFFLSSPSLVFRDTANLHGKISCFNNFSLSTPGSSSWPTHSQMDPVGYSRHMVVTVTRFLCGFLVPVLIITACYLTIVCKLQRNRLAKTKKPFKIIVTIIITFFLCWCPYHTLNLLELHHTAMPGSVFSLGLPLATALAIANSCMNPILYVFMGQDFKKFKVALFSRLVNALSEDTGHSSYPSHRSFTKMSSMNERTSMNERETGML
The test is described as follows: Ca2+ mobilization (CellLux imaging) agonist assay in HEK293A cells expressing CMKLR1 and Gα15. In kind it is cell-based. The following applies: for pEC50: NR where no EC50 is given, read-out: EC50. Here is the method:
HEK293A cells (Invitrogen) expressing CMKLR1 and Gα15 were seeded at 5*10^4 cells/well in a poly-D-lysine coated 96-well black well/clear bottom plate (BD Falcon) and cultured overnight. From eighteen to twenty-four hours later, cells were loaded with FLUO4-AM (Invitrogen). Then the cells were washed two times with C1 solution (130 mM NaCl, 5 mM KCl, 10 mM HEPES pH 7.4, 2 mM CaCl2, and 10 mM Glucose). After the final wash, a 100 µL of residual volume remained on the cells. Peptides were dissolved in 10% DMSO to a concentration of 1 mM and were diluted in C1 solution with 0.1 % BSA. They were aliquoted as 2x solutions in 96-well plates and were simultaneously transferred by the robotic system within the imager from the ligand plate to the cell plate. […] Fluorescence data was generated in duplicate and experiments were repeated for at least three times. […] For the calculation of concentration-response curves, signals of two wells receiving the same concentration of test substances were averaged and the fluorescence changes of corresponding buffer C1 wells were subtracted. Signals were normalized to background fluorescence. For the calculation of EC50 values, plots of amplitude versus concentrations were prepared in SigmaPlot 11.

The mark [1] stands for this setting: Ca2+ mobilization, CMKLR1, decimal comma.

With WFPGQYAYS-NH2 [compound 23], under setting [1], the max response was 0,44 DF/F0 and the pEC50 was 4.68. In the same order, the values of YFPGQFAFK-NH2 [compound 2] are 1,84 DF/F0 and 7.43.

With `CC(C)C[C@H](NC(=O)CNC(=O)[C@H](Cc1ccc(O)cc1)NC(=O)[C@H](CC(C)C)NC(=O)[C@H](N)Cc1ccccc1)C(=O)N[C@@H](Cc1ccc(O)cc1)C(=O)N[C@@H](C)C(=O)N[C@@H](Cc1ccccc1)C(=O)N1CCC[C@@H]1C(=O)O` [compound 108] (H-[dF]LYGLYAF[dP]-OH; N-terminus assumed), under setting [1], the max response was 1,61 DF/F0 and the pEC50 was 5.92. With `CC(C)C[C@H](NC(=O)[C@@H](N)Cc1ccc(O)cc1)C(=O)N1CCC[C@H]1C(=O)NCC(=O)N[C@@H](CCC(N)=O)C(=O)N[C@@H](Cc1ccccc1)C(=O)N[C@H](Cc1ccccc1)C(=O)N[C@@H](Cc1ccccc1)C(=O)N[C@@H](CO)C(N)=O` [compound 4] (H-YLPGQF[dF]FS-NH2; N-terminus assumed), under setting [1], the max response is on record as 1,66 DF/F0. As to `CC(C)C[C@H](NC(=O)[C@@H](Cc1ccccc1)NC(=O)[C@H]1CCCN1C(=O)[C@H](CC(C)C)NC(=O)[C@H](C)NC(=O)[C@H](Cc1ccc(O)cc1)NC(=O)[C@H]1CCCN1C(=O)[C@H](CC(C)C)NC(=O)[C@H](N)Cc1ccccc1)C(=O)O` [compound 118] (H-[dF]L[dP]YAL[dP][dF]L-OH; N-terminus assumed), under setting [1], the max response is 0,61 DF/F0 and the pEC50 was 4.67. Take `CC(C)C[C@H](NC(=O)[C@H](N)Cc1ccc(O)cc1)C(=O)N1CCC[C@H]1C(=O)NCC(=O)N[C@@H](CCC(N)=O)C(=O)N[C@@H](Cc1ccc(O)cc1)C(=O)N[C@@H](C)C(=O)N[C@@H](Cc1ccccc1)C(=O)N[C@@H](Cc1ccccc1)C(=O)O` [compound 43] (H-[dY]LPGQYAFF-OH; N-terminus assumed): the max response under setting [1] is given as 1,13 DF/F0. For the compound `CC(C)C[C@H](NC(=O)[C@H](Cc1ccccc1)NC(=O)[C@H](Cc1ccc(O)cc1)NC(=O)[C@@H]1CCCN1C(=O)[C@H]1CCCN1C(=O)[C@@H]1CCCN1C(=O)[C@H](CC(C)C)NC(=O)[C@H](N)Cc1ccc(O)cc1)C(=O)N[C@H](Cc1ccccc1)C(=O)O` [compound 143] (H-[dY]LP[dP]PYFL[dF]-OH; N-terminus assumed), under setting [1], the max response is on record as 1,62 DF/F0 and the pEC50 is 6.86. For the compound `C[C@H](NC(=O)[C@H](Cc1ccccc1)NC(=O)[C@H](CCC(N)=O)NC(=O)CNC(=O)[C@H]1CCCN1C(=O)CNC(=O)[C@@H]1CCCN1)C(=O)N[C@@H](Cc1ccccc1)C(=O)N[C@H](CO)C(=O)O` [compound 97] (H-PG[dP]GQFAF[dS]-OH; N-terminus assumed), under setting [1], the max response was 1,72 DF/F0 and the pEC50 was 7.00. Turning to `C[C@H](NC(=O)[C@H](Cc1c[nH]c2ccccc12)NC(=O)[C@H](CCC(N)=O)NC(=O)CNC(=O)[C@@H]1CCCN1C(=O)[C@H](Cc1c[nH]c2ccccc12)NC(=O)[C@@H](N)Cc1ccc(O)cc1)C(=O)N[C@H](Cc1ccccc1)C(=O)N[C@@H](CS)C(N)=O` [compound 22] (H-YWPGQWA[dF]C-NH2; N-terminus assumed), under setting [1], the max response is reported as 0,44 DF/F0 and the pEC50 is 4.73. With FYPGQWAYS-NH2 [compound 20], under setting [1], the max response is 0,64 DF/F0 and the pEC50 is 4.89.

For the compound `CC(C)C[C@H](NC(=O)[C@@H](N)Cc1ccc(O)cc1)C(=O)N1CCC[C@H]1C(=O)NCC(=O)N[C@@H](CCC(N)=O)C(=O)N[C@@H](Cc1ccc(O)cc1)C(=O)N[C@@H](C)C(=O)N[C@@H](Cc1ccccc1)C(=O)N[C@H](CO)C(=O)O` [compound 81] (H-YLPGQYAF[dS]-OH; N-terminus assumed), under setting [1], the max response is 1,73 DF/F0.

Regarding `CC(C)C[C@H](NC(=O)[C@H]1CCCN1C(=O)CNC(=O)[C@H](Cc1ccccc1)NC(=O)[C@H](CC(C)C)NC(=O)[C@@H](N)Cc1ccccc1)C(=O)N[C@@H](C)C(=O)N[C@@H](CC(C)C)C(=O)N1CCC[C@@H]1C(=O)O` [compound 116] (H-FLFG[dP]LAL[dP]-OH; N-terminus assumed), under setting [1], the max response is listed as 0,9 DF/F0 and the pEC50 is 5.38.

Turning to YFPGHFAFS-OH [compound 31], the max response was 1,07 DF/F0. Same read-out and setting: then `CC(C)C[C@@H](NC(=O)[C@H](N)Cc1ccc(O)cc1)C(=O)N1CCC[C@H]1C(=O)NCC(=O)N[C@@H](CCC(N)=O)C(=O)N[C@@H](Cc1ccccc1)C(=O)N[C@@H](C)C(=O)N[C@@H](Cc1ccccc1)C(=O)N[C@H](CO)C(=O)O` [compound 98], with 1,68 DF/F0. `NC(=O)CC[C@H](NC(=O)CNC(=O)[C@@H]1CCCN1C(=O)[C@@H](Cc1ccccc1)NC(=O)[C@H](N)Cc1ccccc1)C(=O)N[C@@H](Cc1ccccc1)C(=O)NCC(=O)N[C@H](Cc1ccc(O)cc1)C(=O)N[C@H](CC(N)=O)C(N)=O` [compound 15] (H-[dF][dF]PGQFG[dY][dN]-NH2; N-terminus assumed): under setting [1], the max response is 1,47 DF/F0 and the pEC50 was 5.46.

Turning to YFPGQFAFQ-OH [compound 50], under setting [1], the max response is 1,04 DF/F0 and the pEC50 was 7.28. Taken in the same sequence, the figures for `C[C@H](NC(=O)[C@@H](Cc1ccccc1)NC(=O)[C@H](CCC(N)=O)NC(=O)CNC(=O)[C@@H]1CCCN1C(=O)[C@H](Cc1ccccc1)NC(=O)[C@@H](N)Cc1ccc(O)cc1)C(=O)N[C@@H](Cc1c[nH]c2ccccc12)C(=O)N[C@@H](CO)C(N)=O` [compound 13] (H-YFPGQ[dF]AWS-NH2; N-terminus assumed) were 1,22 DF/F0 and 5.49. In the same order, the values of `C[C@H](N)C(=O)N[C@H](Cc1c[nH]c2ccccc12)C(=O)N1CCC[C@H]1C(=O)NCC(=O)N[C@@H](CCC(N)=O)C(=O)N[C@@H](Cc1ccccc1)C(=O)N[C@@H](C)C(=O)N[C@H](Cc1ccc(O)cc1)C(=O)N[C@@H](CO)C(N)=O` [compound 21] (H-A[dW]PGQFA[dY]S-NH2; N-terminus assumed) are 0,30 DF/F0 and 4.78. Turning to `C[C@H](NC(=O)[C@H](Cc1ccccc1)NC(=O)[C@H](CCC(N)=O)NC(=O)CNC(=O)[C@@H]1CCCN1C(=O)[C@H](CC(=O)O)NC(=O)[C@H](N)Cc1ccc(O)cc1)C(=O)N[C@@H](Cc1ccccc1)C(=O)N[C@H](CO)C(=O)O` [compound 112] (H-[dY]DPGQFAF[dS]-OH; N-terminus assumed), the max response is reported as 1,12 DF/F0. In the case of YFPGYFAFG-NH2 [compound 11], under setting [1], the max response is given as 1,41 DF/F0 and the pEC50 was 5.58. As to YFPGNFAFS-OH [compound 32], the max response is 0,89 DF/F0. Turning to `C[C@H](NC(=O)[C@H](Cc1ccccc1)NC(=O)[C@H](CCC(N)=O)NC(=O)[C@H]1CCCN1C(=O)CNC(=O)[C@H](Cc1ccccc1)NC(=O)[C@@H](N)Cc1ccc(O)cc1)C(=O)N[C@@H](Cc1ccccc1)C(=O)N[C@@H](CO)C(N)=O` [compound 14] (H-YFG[dP]QFAFS-NH2; N-terminus assumed), under setting [1], the max response is given as 1,34 DF/F0 and the pEC50 was 5.46.

As to YFPGNFAFS-NH2 [compound 6], the max response under setting [1] was 1,30 DF/F0. Consider FPPGQGAFK-OH [compound 66], for which, under setting [1], the max response was 0,67 DF/F0 and the pEC50 was 5.93.

In the case of YFPGQFDFS-OH [compound 53], the max response was 0,93 DF/F0. As to FLPGQFAFK-OH [compound 67], under setting [1], the max response is reported as 0,73 DF/F0 and the pEC50 is 5.91. Consider `CC(C)C[C@H](NC(=O)[C@@H](N)Cc1ccc(O)cc1)C(=O)N1CCC[C@H]1C(=O)NCC(=O)N[C@@H](CCC(N)=O)C(=O)N[C@@H](Cc1ccccc1)C(=O)N[C@@H](C)C(=O)N[C@@H](Cc1ccccc1)C(=O)N[C@H](CO)C(=O)O` [compound 33], for which the max response is listed as 0,51 DF/F0. Still for that read-out and setting: in the case of `CSCC[C@H](NC(=O)[C@@H](N)Cc1ccc(O)cc1)C(=O)N1CCC[C@H]1C(=O)NCC(=O)N[C@@H](CCC(N)=O)C(=O)N[C@@H](Cc1ccccc1)C(=O)N[C@@H](C)C(=O)N[C@@H](Cc1ccccc1)C(=O)N[C@H](CO)C(=O)O` [compound 40] (H-YMPGQFAF[dS]-OH; N-terminus assumed) it was 0,74 DF/F0. As to `C[C@H](NC(=O)[C@H](Cc1ccccc1)NC(=O)[C@@H](CCC(N)=O)NC(=O)CNC(=O)[C@H](Cc1ccccc1)NC(=O)[C@H](C)NC(=O)[C@@H](N)Cc1ccccc1)C(=O)N[C@@H](Cc1ccccc1)C(=O)N[C@H](CO)C(=O)O` [compound 114] (H-FAFG[dQ]FAF[dS]-OH; N-terminus assumed), under setting [1], the max response is 1,24 DF/F0 and the pEC50 is 5.61.
